# What was measured:
# [1] = molecular target: Tissue-type plasminogen activator (Homo sapiens, UniProt P00750); assay: Inhibitory activity against Tissue plasminogen activator
# Prothrombin = Prothrombin (Homo sapiens, UniProt P00734); assay: Inhibitory activity against thrombin IIa
# Serine protease 1 = Serine protease 1 (Homo sapiens, UniProt P07477); assay: Inhibitory activity against human trypsin
# Homo sapiens = species on record: Homo sapiens; assay: Concentration of inhibitor in human plasma required to double the activated partial thromboplastin time; type: functional
# Sequence of Tissue-type plasminogen activator (P00750 whole entry): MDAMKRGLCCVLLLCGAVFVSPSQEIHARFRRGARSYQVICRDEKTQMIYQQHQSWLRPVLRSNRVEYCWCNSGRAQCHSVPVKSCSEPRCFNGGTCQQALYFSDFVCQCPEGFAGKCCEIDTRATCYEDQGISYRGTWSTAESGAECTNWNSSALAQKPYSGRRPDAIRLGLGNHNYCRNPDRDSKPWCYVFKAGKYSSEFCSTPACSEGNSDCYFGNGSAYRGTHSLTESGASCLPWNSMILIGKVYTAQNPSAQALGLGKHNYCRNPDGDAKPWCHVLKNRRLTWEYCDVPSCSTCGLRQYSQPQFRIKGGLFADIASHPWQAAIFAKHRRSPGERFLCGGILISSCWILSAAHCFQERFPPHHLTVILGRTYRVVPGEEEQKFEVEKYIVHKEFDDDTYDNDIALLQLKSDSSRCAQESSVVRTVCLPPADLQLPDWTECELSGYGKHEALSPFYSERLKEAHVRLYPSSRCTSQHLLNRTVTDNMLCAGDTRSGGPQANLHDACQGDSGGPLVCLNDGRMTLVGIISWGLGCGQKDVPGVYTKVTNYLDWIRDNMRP
# Sequence of Serine protease 1 (P07477 whole entry): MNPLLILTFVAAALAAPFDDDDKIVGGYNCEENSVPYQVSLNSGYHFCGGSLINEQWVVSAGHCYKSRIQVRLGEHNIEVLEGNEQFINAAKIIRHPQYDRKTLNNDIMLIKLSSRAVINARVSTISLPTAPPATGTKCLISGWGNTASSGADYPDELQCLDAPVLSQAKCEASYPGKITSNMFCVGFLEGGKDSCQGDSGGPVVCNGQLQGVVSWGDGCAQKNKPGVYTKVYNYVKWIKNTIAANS
Compound,Ki [1] [nM],Ki (Prothrombin) [nM],Ki (Serine protease 1) [µM],2*APTT (Homo sapiens) [µM]
O=C1Cn2c(Cl)cnc(c2=O)N[C@@H](Cc2ccccc2)CNCCCCOc2ccc(Cl)cc2CN1,20,0.2,0.09,0.74
O=C1Cn2c(Cl)cnc(c2=O)N[C@@H](Cc2ccccc2)NCCCCCCOc2ccc(Cl)cc2CN1,,0.13,0.24,3.17
O=C1Cn2c(Cl)cnc(c2=O)N[C@@H](Cc2ccccc2)CNCCCCCOc2ccccc2CN1,360,2.5,6.7,0.6
O=C1Cn2c(Cl)cnc(c2=O)N[C@@H](Cc2ccccc2)CNCCCOc2ccc(Cl)cc2CN1,,26,,
CN1CCCCCOc2ccc(Cl)cc2CNC(=O)Cn2c(Cl)cnc(c2=O)N[C@@H](Cc2ccccc2)C1,3,0.02,0.04,1.89
O=C1COc2ccc(Cl)cc2CNC(=O)[C@@H]2CCCN2C(=O)[C@@H](C2CCCCC2)NC(=O)CCCN1,4300,0.4,5,0.31
O=C1Cn2c(Cl)cnc(c2=O)N[C@@H](Cc2ccccc2)CNC(=O)OCCCCOc2ccc(Cl)cc2CN1,,0.63,4,1.97
O=C1COc2ccc(Cl)cc2CNC(=O)[C@@H]2CCCN2C(=O)C(C2CCCCC2)NC(=O)CCN1 (some centres undefined),8900,,21.5,0.36
O=C1Cn2c(Cl)cnc(c2=O)N[C@@H](Cc2ccccc2)CNC(=O)OC/C=C/COc2ccc(Cl)cc2CN1,480,0.17,0.58,0.87
O=C1Cn2c(Cl)cnc(c2=O)N[C@@H](Cc2ccccc2)CNCCOCCOc2ccc(Cl)cc2CN1,150,0.05,0.11,0.56
O=C1COc2ccc(Cl)cc2CNC(=O)[C@@H]2CCCN2C(=O)[C@@H](C2CCCCC2)NC(=O)CCCCN1,48000,1.3,7.7,0.36
O=C1Cn2c(Cl)cnc(c2=O)N[C@@H](Cc2ccccc2)CNCCOCCOc2ccccc2CN1,3200,2.1,4.6,0.39
CCNC(=O)Oc1ccc(Cl)cc1CNC(=O)[C@@H]1CCCN1C(=O)[C@@H](N)C1CCCCC1,,0.74,,

# Continued, in another order:
Ki [1] [nM],Ki (Prothrombin) [nM],Ki (Serine protease 1) [µM],Compound,2*APTT (Homo sapiens) [µM]
5600,2.9,9.3,O=C1COc2ccc(Cl)cc2CNC(=O)[C@@H]2CCCN2C(=O)[C@@H](C2CCCCC2)NC(=O)CN1,0.69
,560,,O=C1Cn2c(Cl)cnc(c2=O)N[C@@H](Cc2ccccc2)CNCCOc2ccc(Cl)cc2CN1,
640,,2.1,O=C1Cn2c(Cl)cnc(c2=O)N[C@@H](Cc2ccccc2)CNCCCNCCc2ccccc2CN1,0.47
165000,0.51,41,O=C1Cn2c(Cl)cnc(c2=O)N[C@@H](Cc2ccccc2)CNCCCCNCc2ccccc2CN1,0.43
,0.31,,CCN(CC)C(=O)CN[C@H](C(=O)N1CCC[C@H]1C(=O)NCc1cc(Cl)ccc1Cl)C1CCCCC1,
6,0.05,0.08,O=C1Cn2c(Cl)cnc(c2=O)N[C@@H](Cc2ccccc2)CNCCCCCOc2ccc(Cl)cc2CN1,1.22
,5,,N[C@H](C(=O)N1CCC[C@H]1C(=O)NCc1cc(Cl)ccc1Cl)C1CCCCC1,
6,0.06,0.11,O=C1Cn2c(Cl)cnc(c2=O)N[C@@H](Cc2ccccc2)CNC(=O)OC/C=C\COc2ccc(Cl)cc2CN1,0.78
3900,3,17,CN1CCOc2ccccc2CNC(=O)Cn2c(Cl)cnc(c2=O)N[C@@H](Cc2ccccc2)CNC(=O)C1,0.5
